This note sets out measurements from patent US9682925B2, “Cyclopropaneamine compound” (TAKEDA PHARMACEUTICAL COMPANY LIMITED, priority 2011, dated 2017).

Assay type in all cases: biochemical
One assay concerns the target T1, human LSD1(171-852) (Homo sapiens, UniProt O60341).
T1 construct: to give hLSD1(171-852) purified product; made in house; host or cells: Escherichia coli C43(DE3) pLysS
The assay can be described thus: Measurement of LSD1 inhibitory activity (time-resolved fluorescence, biotin-histone H3 mono methylated K4 peptide). Conditions: read-out: LSD1 IC50 value. The method, then: When the turbidity reached 600 Klett units, the culture temperature was changed to 16° C., IPTG having a final concentration of 0.5 mM was added to induce expression, and the cells were cultured further for 21 hr. The culture medium was centrifuged at 9,000 g for 10 min, and Escherichia coli pellets were recovered.
Escherichia coli pellets in 9 L of the culture medium were suspended in 1340 mL of an extraction buffer (PBS, 5% (V/V) Glycerol), and 6700 units of Benzonase (Merck) were added. Using Branson ultrasonic disintegrator, the suspension was disrupted by ultrasonication for 3 min, and centrifuged at 33,000 g for 20 min, and the supernatant was recovered.
(5) Measurement of LSD1 Inhibitory Activity
After reaction at room temperature for 20 min, 1 mM 2-PCPA solution (5 μL) was added to terminate the reaction. A detection solution (800 mM potassium fluoride, 0.1% BSA) containing europium-labeled antihistone H3 antibody (Wako Pure Chemical Industries, Ltd.) and Streptavidin-XL665 (Cisbio) was further added by 5 μL, and the mixture was left standing for 60 min. A time-resolved fluorescence (excitation 320 nm, emission 615 nm, 665 nm) was measured by Envision (PerkinElmer). The LSD1 inhibitory rate (%) of the test compound was calculated by the following formula. inhibitory rate (%)=(1−(test compound count−blank)÷(control−blank)×100
The count of the LSD1 enzyme reaction mixture under compound non-addition conditions is indicated as control, and the count under compound non-addition and LSD1 enzyme non-addition conditions is indicated as blank.

Another assay addresses T2, MAO-A (Homo sapiens, UniProt P21397).
T2 construct: purchased Sigma-Aldrich Co. LLC
T2 sequence (P21397 1-527): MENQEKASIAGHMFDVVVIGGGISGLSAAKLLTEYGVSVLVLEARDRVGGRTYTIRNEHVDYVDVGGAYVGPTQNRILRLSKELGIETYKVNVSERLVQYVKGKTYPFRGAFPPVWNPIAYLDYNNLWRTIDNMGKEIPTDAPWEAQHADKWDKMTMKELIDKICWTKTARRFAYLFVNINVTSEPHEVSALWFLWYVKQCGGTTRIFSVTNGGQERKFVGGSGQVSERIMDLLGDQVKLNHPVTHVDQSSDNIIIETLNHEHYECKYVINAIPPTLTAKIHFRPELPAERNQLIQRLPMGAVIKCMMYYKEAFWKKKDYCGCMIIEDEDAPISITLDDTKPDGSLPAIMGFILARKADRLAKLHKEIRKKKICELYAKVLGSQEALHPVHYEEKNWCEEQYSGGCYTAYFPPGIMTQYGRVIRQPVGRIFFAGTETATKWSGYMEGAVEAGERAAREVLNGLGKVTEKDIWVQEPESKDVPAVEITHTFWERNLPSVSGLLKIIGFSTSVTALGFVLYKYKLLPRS
As to the kind of experiment: Measurement of MAO-A inhibitory activity (MAO-Glo Assay). The method, then:
(1) Measurement of MAO-A Inhibitory Activity
The MAO-A inhibitory activity evaluation described below followed the protocol of MAO-Glo (registered trademark) Assay of Promega KK.
(§1) A test compound dissolved in 4% DMSO was added by 12.5 μL to 25 μL reaction solution (100 mM HEPES (pH 7.5), 5% glycerol) containing 400 ng of MAO-A enzyme (Sigma-Aldrich Co. LLC.), and the mixture was reacted at room temperature for 10 min. MAO substrate (Promega KK) (160 μM) was added by 12.5 μL to start the reaction. After reaction at room temperature for 60 min, Luciferine detection reagent (Promega KK) (50 μL) was added to terminate the reaction. After reaction at room temperature for 20 min with stirring, the luminescence was measured by Envision (PerkinElmer). The MAO-A inhibitory rate (%) of the test compound was calculated by the following formula. inhibitory rate (%)=(1−(test compound count−blank)÷(control−blank)×100
The count of the MAO-A enzyme reaction mixture under compound non-addition conditions is indicated as control, and the count under compound non-addition and MAO-A enzyme non-addition conditions is indicated as blank.

The target in another assay is T3, MAO-B (Homo sapiens, UniProt P27338).
T3 construct: purchased Sigma-Aldrich Co. LLC
T3 sequence (P27338 1-520): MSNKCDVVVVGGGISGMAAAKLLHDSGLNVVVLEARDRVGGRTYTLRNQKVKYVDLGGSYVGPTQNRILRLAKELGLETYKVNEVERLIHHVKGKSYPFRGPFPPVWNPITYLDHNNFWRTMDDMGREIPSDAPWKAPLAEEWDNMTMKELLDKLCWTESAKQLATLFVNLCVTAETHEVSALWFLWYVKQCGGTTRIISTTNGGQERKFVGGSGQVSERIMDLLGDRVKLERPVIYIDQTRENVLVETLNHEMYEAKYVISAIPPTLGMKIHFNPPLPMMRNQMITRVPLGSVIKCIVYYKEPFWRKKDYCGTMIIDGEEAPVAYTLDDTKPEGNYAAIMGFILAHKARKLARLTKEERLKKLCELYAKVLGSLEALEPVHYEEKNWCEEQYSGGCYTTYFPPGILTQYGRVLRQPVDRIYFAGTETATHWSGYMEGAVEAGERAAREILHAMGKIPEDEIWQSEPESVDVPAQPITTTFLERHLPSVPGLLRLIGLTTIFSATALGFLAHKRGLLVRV
The assay can be described thus: Measurement of MAO-B inhibitory activity (MAO-Glo Assay). The method, then:
(2) Measurement of MAO-B Inhibitory Activity
The MAO-B inhibitory activity evaluation described below followed the protocol of MAO-Glo (registered trademark) Assay of Promega KK.
as §1, with “glycerol, 10% DMSO)” for “glycerol)”, “MAO-B” for “MAO-A”, “(16” for “(160”
The count of the MAO-B enzyme reaction mixture under compound non-addition conditions is indicated as control, and the count under compound non-addition and MAO-B enzyme non-addition conditions is indicated as blank.

Structures are written as SMILES. Counter-ions that a name gives are not always drawn.

The IC50 is the midpoint of a concentration-inhibition curve. As to `O=C(Nc1ccc([C@@H]2C[C@H]2NCc2ccc(Cl)c(Cl)c2)cc1)c1ccc(-c2ccccc2)cc1` (relative stereo) [Example 53, N-(4-{trans-2-[(3,4-dichloro-benzyl)amino]-cyclopropyl}phenyl)-biphenyl-4-carboxamide], the IC50 at human LSD1(171-852) turned out to be 0.23 µM; on MAO-A, 4 µM; on MAO-B it was 3.4 µM.

Take `O=C(Nc1ccc([C@@H]2C[C@H]2NCc2ccc3c(c2)OCO3)cc1)c1ccc(-c2ccccc2)cc1` (relative stereo) [Example 42, N-(4-{trans-2-[(1,3-benzodioxol-5-ylmethyl)amino]-cyclopropyl}-phenyl)biphenyl-4-carboxamide]: the IC50 on human LSD1(171-852) is less than 0.1 µM; at MAO-A, more than 10 µM; against MAO-B, more than 10 µM.

As to `O=C(Nc1ccc([C@@H]2C[C@H]2NCc2ccccc2)cc1)c1cccc(N2CCCCC2=O)c1` (relative stereo) [Example 33, N-{4-[trans-2-(benzylamino)cyclopropyl]phenyl}-3-(2-oxopiperidin-1-yl)benzamide], the 50% inhibitory concentration (IC50) on human LSD1(171-852) is less than 0.1 µM; against MAO-A, more than 10 µM; against MAO-B it was more than 10 µM.

In the case of `COc1ccc(CN[C@@H]2C[C@H]2c2ccc(NC(=O)c3cccc(Br)c3)cc2)cc1OC` (relative stereo) [Example 6, 3-bromo-N-(4-{trans-2-[(3,4-dimethoxybenzyl)amino]cyclopropyl}phenyl)benzamide], the values for the IC50 on human LSD1(171-852), against MAO-A and on MAO-B were less than 0.1 µM, more than 10 µM and more than 10 µM, respectively.

Turning to `CN1CCC(N[C@@H]2C[C@H]2c2ccc(N(C)C(=O)c3cccc(C(F)(F)F)c3)cc2)CC1` (relative stereo) [Example 150, N-methyl-N-(4-{trans-2-[(1-methylpiperidin-4-yl)amino]cyclopropyl}phenyl)-3-(trifluoromethyl)benzamide dihydrochloride], the IC50 is less than 0.1 µM on human LSD1(171-852), more than 10 µM against MAO-A and more than 10 µM at MAO-B.

Turning to `O=C(Nc1ccc([C@@H]2C[C@H]2NCc2ccc(-c3ccccc3)cc2)cc1)c1ccccc1` (relative stereo) [Example 16, N-(4-{trans-2-[(biphenyl-4-ylmethyl)amino]-cyclopropyl}-phenyl)benzamide], the figures for the IC50 at human LSD1(171-852), on MAO-A and on MAO-B were less than 0.1 µM, 4.7 µM and more than 10 µM, respectively.

`CS(=O)(=O)c1cccc(C(=O)Nc2ccc([C@@H]3C[C@H]3NCC3CC3)cc2)c1` (relative stereo) [Example 91, N-(4-{trans-2-[(cyclopropylmethyl)amino]cyclopropyl}-phenyl)-3-(methylsulfonyl)-benzamide]: the IC50 on human LSD1(171-852) is less than 0.1 µM; against MAO-A it was more than 10 µM; against MAO-B, more than 10 µM.

With `CCC(CC)N[C@@H]1C[C@H]1c1ccc(NC(=O)c2ccc(-c3ccccc3)cc2)cc1` (relative stereo) [Example 49, N-(4-{trans-2-[(1-ethylpropyl)amino]-cyclopropyl}phenyl)-biphenyl-4-carboxamide], the figures for the IC50 on human LSD1(171-852), at MAO-A and on MAO-B were less than 0.1 µM, more than 10 µM and more than 10 µM, respectively.

Turning to `CC(C)N1CCC(N[C@@H]2C[C@H]2c2ccc(NC(=O)c3cccc(C(F)(F)F)c3)cc2)CC1` (relative stereo) [Example 112, N-[4-(trans-2-{[1-(1-methylethyl)piperidin-4-yl]amino}cyclopropyl)phenyl]-3-(trifluoromethyl)benzamide dihydrochloride], the IC50 at human LSD1(171-852) was less than 0.1 µM; on MAO-A, more than 10 µM; at MAO-B, more than 10 µM.

Consider `O=C(Nc1ccc([C@@H]2C[C@H]2NCC2CC2)cc1)c1ccc2[nH]ncc2c1` (relative stereo) [Example 99, N-(4-{trans-2-[(cyclopropylmethyl)-amino]cyclopropyl}-phenyl)-1H-indazole-5-carboxamide], for which the results for the IC50 at human LSD1(171-852), against MAO-A and against MAO-B were less than 0.1 µM, more than 10 µM and more than 10 µM, respectively.

With `Cc1cc(C2CC2NCC2CC2)ccc1NC(=O)c1ccccc1` (stereo not drawn) [Example 81, N-(4-{trans-2-[(cyclopropylmethyl)amino]cyclopropyl}-2-methylphenyl)benzamide hydrochloride], the IC50 at human LSD1(171-852) is less than 0.1 µM; against MAO-A it was more than 10 µM; against MAO-B, more than 10 µM.

Take `O=C(Nc1ccc([C@@H]2C[C@H]2NCC2CC2)cc1)c1cc(C(F)(F)F)ccc1F` (relative stereo) [Example 73, N-(4-{trans-2-[(cyclopropylmethyl)amino]cyclopropyl}phenyl)-2-fluoro-5-(trifluoromethyl)benzamide hydrochloride]: the IC50 on human LSD1(171-852) was less than 0.1 µM; against MAO-B, 8.1 µM.

Take `Cn1cc(C(=O)Nc2ccc([C@@H]3C[C@H]3NCC3CC3)cc2)cn1` (relative stereo) [Example 163, N-(4-{trans-2-[(cyclopropylmethyl)amino]cyclopropyl}phenyl)-1-methyl-1H-pyrazole-4-carboxamide hydrochloride]: the half-maximal inhibitory concentration (IC50) against MAO-A and on MAO-B was more than 10 µM throughout.

As for `O=C(Nc1ccc([C@@H]2C[C@H]2NCC2CC2)cc1)c1ccc(-c2ccccc2)cc1` (single isomer, unassigned) [Example 166, N-(4-{(1S,2R) or (1R,2S)-2-[(cyclopropylmethyl)amino]cyclopropyl}phenyl)biphenyl-4-carboxamide hydrochloride], the IC50 at MAO-A and on MAO-B was more than 10 µM each time.

`O=C(Nc1ccc([C@H]2C[C@@H]2NCC2CC2)cc1)c1ccc(-c2ccccc2)cc1` (single isomer, unassigned) [Example 165, N-(4-{(1R,2S) or (1S,2R)-2-[(cyclopropylmethyl)amino]cyclopropyl}phenyl)biphenyl-4-carboxamide hydrochloride]: the IC50 at MAO-A and on MAO-B was more than 10 µM in each case.
